# Reference: US20100292325A1, “P-MENTHAWE-3-CARBOXYLIC ACID ESTERS TO TREAT AIRWAYS DISEASES” (priority 2007, published 2010)
# What was measured:
# [1] = tested on: oropharynx (back of the mouth); test: Bioassay: compound applied by glass rod onto the posterior dorsal tongue, oral sensations noted; assay type: in vivo, human; conditions: for sensation from the oral cavity: 2 mg on the posterior third of the tongue; for cooling qualities: in vivo
# Experimental: CPS-004 and CPS-030 are liquids at room temperatures. These compounds were tested by placing 0, 2, 5 and 8 mg on a 6-inch glass rod and applying these compounds onto the posterior third of the dorsal surface of the tongue. After depositing the test substance, the subject was instructed to keep the mouth closed and allow the test substance to distribute to the back of the mouth (orpharynx). The presence and duration of sensations from the oral cavity was then noted.
# skin = conditions: in vivo; cited from earlier work
# TRP-M8 = TRP-M8 (Homo sapiens, UniProt Q7Z2W7); conditions: cited from earlier work
# TRP-M8, sequence (Q7Z2W7 whole entry, species assumed): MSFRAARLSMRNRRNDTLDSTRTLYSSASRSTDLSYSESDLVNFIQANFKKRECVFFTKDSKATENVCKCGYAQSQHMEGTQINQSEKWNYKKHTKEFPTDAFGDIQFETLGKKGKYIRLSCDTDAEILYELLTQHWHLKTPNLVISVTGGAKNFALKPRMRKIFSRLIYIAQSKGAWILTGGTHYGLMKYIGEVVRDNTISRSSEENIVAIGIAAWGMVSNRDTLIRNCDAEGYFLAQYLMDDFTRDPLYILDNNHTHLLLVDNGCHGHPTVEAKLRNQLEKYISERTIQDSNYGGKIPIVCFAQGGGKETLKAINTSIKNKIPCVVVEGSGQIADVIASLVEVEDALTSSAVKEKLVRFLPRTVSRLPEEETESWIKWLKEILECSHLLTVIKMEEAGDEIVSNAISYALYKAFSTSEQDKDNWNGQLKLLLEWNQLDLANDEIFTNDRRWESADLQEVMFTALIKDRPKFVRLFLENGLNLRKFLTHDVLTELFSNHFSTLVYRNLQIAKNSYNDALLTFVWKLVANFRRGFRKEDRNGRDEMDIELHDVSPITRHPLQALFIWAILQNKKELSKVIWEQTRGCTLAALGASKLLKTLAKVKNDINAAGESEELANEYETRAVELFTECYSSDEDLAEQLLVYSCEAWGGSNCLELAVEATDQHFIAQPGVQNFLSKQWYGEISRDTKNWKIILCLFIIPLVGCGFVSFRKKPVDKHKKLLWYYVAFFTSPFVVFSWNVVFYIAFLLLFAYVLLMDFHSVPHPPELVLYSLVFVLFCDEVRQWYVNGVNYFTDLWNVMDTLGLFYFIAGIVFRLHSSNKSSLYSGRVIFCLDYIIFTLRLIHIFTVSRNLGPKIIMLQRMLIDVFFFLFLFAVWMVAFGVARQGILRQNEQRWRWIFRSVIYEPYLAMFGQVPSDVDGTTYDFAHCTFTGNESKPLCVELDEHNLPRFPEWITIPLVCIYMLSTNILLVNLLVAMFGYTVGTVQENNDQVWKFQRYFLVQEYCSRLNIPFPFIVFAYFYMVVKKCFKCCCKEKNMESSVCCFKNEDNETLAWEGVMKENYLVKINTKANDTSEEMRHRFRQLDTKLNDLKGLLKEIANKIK
SMILES,sensation from the oral cavity [1],cooling qualities [1],taste ([1]; applied onto the tongue),cooling action on the skin (skin),potency on TRP-M8 relative to menthol (TRP-M8) [times]
CC(C)[C@@H]1CC[C@@H](C)C[C@H]1C(=O)OCCO [CPS-004],cooling effect on the back of the mouth,good cooling qualities,,,
CC(C)[C@@H]1CC[C@@H](C)C[C@H]1C(=O)OCC(O)CO (stereo partly shown) [CPS-030],cooling effect on the back of the mouth,good cooling qualities,acrid taste which was objectionable,,
COc1ccc(NC(=O)[C@@H]2C[C@H](C)CC[C@H]2C(C)C)cc1 [WS-12],,,,does not produce very much cooling action on the skin,2000
